From patent publication US8889670B2, “Heterocyclic compounds which modulate the CB2 receptor” (Boehringer Ingelheim International GmbH, priority 2009, dated 2014) come the findings set out here.

The term EC50 denotes the concentration needed to bring the measured effect to its halfway point.

The target in one assay is T1, human CB2R (Homo sapiens, UniProt P34972).
T1 construct: host or cells: CHO cells
T1 sequence (P34972 whole entry): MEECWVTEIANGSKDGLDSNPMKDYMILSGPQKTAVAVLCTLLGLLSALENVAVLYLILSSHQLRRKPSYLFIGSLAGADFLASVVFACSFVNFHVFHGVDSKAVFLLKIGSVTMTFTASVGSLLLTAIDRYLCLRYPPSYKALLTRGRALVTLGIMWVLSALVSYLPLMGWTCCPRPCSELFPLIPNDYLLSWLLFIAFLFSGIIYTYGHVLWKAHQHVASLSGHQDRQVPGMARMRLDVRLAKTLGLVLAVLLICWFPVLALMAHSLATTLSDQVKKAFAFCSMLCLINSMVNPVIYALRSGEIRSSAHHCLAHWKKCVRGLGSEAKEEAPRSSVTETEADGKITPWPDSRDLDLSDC
Briefly: CB2R mediated modulation of cAMP synthesis (forskolin-stimulated cAMP, CHO cells expressing human CB2R). Type of assay: cell-based.
Conditions: not given
Here is the method:
B. CB2R Mediated Modulation of cAMP Synthesis:
Compounds of the invention were evaluated for their CB2 agonist or inverse agonistic activity in accordance with the following experimental method.
CHO cells expressing human CB2R (Euroscreen) were plated at a density of 5000 cells per well in 384 well plates and incubated overnight at 37° C. After removing the media, the cells were treated with test compounds diluted in stimulation buffer containing 1 mM IBMX, 0.25% BSA and 10 uM Forskolin. The assay was incubated for 30 minutes at 37° C. Cells were lysed and the cAMP concentration was measured using DiscoverX-XS cAMP kit, following the manufacturer's protocol. In this setting, agonists will decrease forskolin induced production of cAMP while inverse agonists will further increase forskolin induced production of cAMP. EC50 of agonists were calculated as follows. The maximal amount of cAMP produced by forskolin compared to the level of cAMP inhibited by 1 uM CP55940 is defined as 100%. […] Data was analyzed using a four-parameter logistic model. (Model 205 of XLfit 4.0).
Compound `CC(C)(C)c1cc(NC(=O)[C@@H]2CCCCN2C(=O)CN2CCC(F)CC2)no1` [(S)-1-[2-(4-Fluoro-piperidin-1-yl)-acetyl]-piperidine-2-carboxylic acid (5-tert-butyl-isoxazol-3-yl)-amide] returned an EC50 of 75 nM.

In turn, `O=C(Nc1nc2cc(Cl)ccc2[nH]1)[C@@H]1CCCCN1C(=O)N1CCS(=O)(=O)CC1` [(S)-1-(1,1-Dioxo-1λ^6-thiomorpholine-4-carbonyl)-piperidine-2-carboxylic acid (5-chloro-1H-benzimidazol-2-yl)-amide] returned an EC50 of 77 nM.

`CC(C)(C)c1cc(NC(=O)[C@@H]2CCCCN2C(=O)C2CCC(F)(F)CC2)on1` [(S)-1-(4,4-Difluoro-cyclohexanecarbonyl)-piperidine-2-carboxylic acid (3-tert-butyl-isoxazol-5-yl)-amide]: the EC50 is 1 nM.

The compound `O=C(Nc1nc2c(F)cccc2s1)[C@@H]1CCCCN1CC1CCOCC1` [(S)-1-(Tetrahydro-pyran-4-ylmethyl)-piperidine-2-carboxylic acid (4-fluoro-benzothiazol-2-yl)-amide] had an EC50 of 1.3 nM.

`CC(C)(C)c1cc(NC(=O)[C@@H]2CCCCCN2CC2CCOCC2)no1` [(S)-1-(Tetrahydro-pyran-4-ylmethyl)-azepane-2-carboxylic acid (5-tert-butyl-isoxazol-3-yl)-amide] showed an EC50 of 0.03 nM.

`O=C(Nc1nc(-c2ccc(F)c(F)c2)cs1)[C@@H]1CCCCN1CC1CCOCC1` [(S)-1-(Tetrahydro-pyran-4-ylmethyl)-piperidine-2-carboxylic acid [4-(3,4-difluoro-phenyl)-thiazol-2-yl]-amide]: the EC50 was 3.6 nM.

Compound `CC(C)(C)c1cc(NC(=O)[C@@H]2CCCN(c3ncc(C(F)(F)F)cc3Cl)C2)no1` [(R)-3′-Chloro-5′-trifluoromethyl-3,4,5,6-tetrahydro-2H-[1,2′]bipyridinyl-3-carboxylic acid (5-tert-butyl-isoxazol-3-yl)-amide] showed an EC50 of 54 nM.

`CC(C)(C)c1cc(NC(=O)[C@@H]2CCCCN2C(=O)C2CCCC2)no1` [(S)-1-Cyclopentanecarbonyl-piperidine-2-carboxylic acid (5-tert-butyl-isoxazol-3-yl)-amide] registered an EC50 of 14 nM.

`CC(C)(C)c1cc(NC(=O)[C@@H]2CCCCN2C(=O)CC2CCS(=O)(=O)C2)no1` (stereo partly drawn) [(S)-1-[2-(1,1-Dioxo-tetrahydro-1λ^6-thiophen-3-yl)-acetyl]-piperidine-2-carboxylic acid (5-tert-butyl-isoxazol-3-yl)-amide] had an EC50 of 7.7 nM.

`CC(C)(C)c1cc(NC(=O)[C@@H]2CCCCN2C(=O)C2CCC(F)(F)CC2)no1` [(S)-1-(4,4-Difluoro-cyclohexanecarbonyl)-piperidine-2-carboxylic acid (5-tert-butyl-isoxazol-3-yl)-amide] returned an EC50 of 4.6 nM.

Turning to `O=C(Nc1ccc(F)c(C(F)(F)F)c1)[C@@H]1CCCCN1CC1CCOCC1` [(S)-1-(Tetrahydro-pyran-4-ylmethyl)-piperidine-2-carboxylic acid (4-fluoro-3-trifluoromethyl-phenyl)-amide], the EC50 turned out to be 26 nM.

The compound `CC(C)(C)c1nsc(NC(=O)[C@@H]2CCCCN2CC2CCOCC2)n1` [(S)-1-(Tetrahydro-pyran-4-ylmethyl)-piperidine-2-carboxylic acid (3-tert-butyl-1,2,4-thiadiazol-5-yl)-amide] showed an EC50 of 12 nM.

In turn, `CC(C)(C)c1cc(NC(=O)[C@@H]2CCCCN2S(=O)(=O)c2ccc(Cl)cc2)no1` [(S)-1-(4-Chloro-benzenesulfonyl)-piperidine-2-carboxylic acid (5-tert-butyl-isoxazol-3-yl)-amide] showed an EC50 of 21 nM.

As for `O=C(Nc1ccc(C(F)(F)F)cn1)[C@@H]1CCCCN1CC1CCOCC1` [(S)-1-(Tetrahydro-pyran-4-ylmethyl)-piperidine-2-carboxylic acid (5-trifluoromethyl-pyridin-2-yl)-amide], the EC50 worked out at 69 nM.

Compound `CC(C)(C)c1cc(NC(=O)C2COCCN2S(=O)(=O)c2ccc(Cl)cc2)no1` (centres unmarked) [4-(4-Chloro-benzenesulfonyl)-morpholine-3-carboxylic acid (5-tert-butyl-isoxazol-3-yl)-amide] gave an EC50 of 34 nM.

`CC(C)(C)c1cc(NC(=O)C2CCCN(Cc3ccc(Cl)cc3)C2)no1` (centres unmarked) [1-(4-Chloro-benzyl)-piperidine-3-carboxylic acid (5-tert-butyl-isoxazol-3-yl)-amide] came in with an EC50 of 2.7 nM.

Regarding `CC(C)(C)c1cc(NC(=O)C2CCCN(S(=O)(=O)c3ccc(Cl)cc3)C2)no1` (centres unmarked) [1-(4-Chloro-benzenesulfonyl)-piperidine-3-carboxylic acid (5-tert-butyl-isoxazol-3-yl)-amide], the EC50 was found to be 12 nM.

On to `CO[C@H]1CC[C@@H](C(=O)N2CCCC[C@H]2C(=O)Nc2cc(C(C)(C)C)on2)CC1`, for which the response was half-maximal at 43 nM (EC50).

`CC(C)(C)c1coc(NC(=O)[C@@H]2CCCCN2CC2CCOCC2)n1` [(S)-1-(Tetrahydro-pyran-4-ylmethyl)-piperidine-2-carboxylic acid (4-tert-butyl-oxazol-2-yl)-amide] registered an EC50 of 2.4 nM.

`CC(C)(C)c1cc(NC(=O)[C@@H]2CCCCN2C(=O)C2CCCCCC2)no1` displayed an EC50 of 8.2 nM.

As for `CC(C)(C)c1cc(NC(=O)C2CCCCN2C(=O)C2CCC(F)(F)CC2)no1` (centres unmarked) [1-(4,4-Difluoro-cyclohexanecarbonyl)-piperidine-2-carboxylic acid (5-tert-butyl-isoxazol-3-yl)-amide], the concentration giving a half-maximal response (EC50) amounted to 11 nM.

Staying with this assay, now noted: agonist EC50, inhibition of forskolin-stimulated cAMP synthesis; CHO cells expressing human CB2R; mean; read-out: CB2 CAMP @ EC50 nM (mean).
Regarding `CCn1nc(NC(=O)[C@@H]2CCCCN2CC2CCOCC2)nc1-c1ccccc1` [(S)-1-(Tetrahydro-pyran-4-ylmethyl)-piperidine-2-carboxylic acid (1-ethyl-5-phenyl-1H-1,2,4-triazol-3-yl)-amide], the EC50 came to 8.6 nM.

For the compound `O=C(NCCSCc1c(F)cccc1Cl)[C@@H]1CCCCN1C(=O)N1CCS(=O)(=O)CC1` [(S)-1-(1,1-Dioxo-1λ^6-thiomorpholine-4-carbonyl)-piperidine-2-carboxylic acid [2-(2-chloro-6-fluoro-benzylsulfanyl)-ethyl]-amide], the EC50 amounted to 130 nM.

As to `O=C(Nc1cc(C(F)(F)F)ccn1)[C@@H]1CCCCN1CC1CCOCC1` [(S)-1-(Tetrahydro-pyran-4-ylmethyl)-piperidine-2-carboxylic acid (4-trifluoromethyl-pyridin-2-yl)-amide], the EC50 amounted to 290 nM.

Consider `O=C(Nc1ccc(C(F)(F)F)cn1)[C@@H]1CCCCN1C(=O)C1CCC(F)(F)CC1` [(S)-1-(4,4-Difluoro-cyclohexanecarbonyl)-piperidine-2-carboxylic acid (5-trifluoromethyl-pyridin-2-yl)-amide], for which the EC50 is 282 nM.

With `O=C(Nc1nsc(-c2ccccc2)n1)[C@@H]1CCCCN1CC1CCOCC1` [(S)-1-(Tetrahydro-pyran-4-ylmethyl)-piperidine-2-carboxylic acid (5-phenyl-1,2,4-thiadiazol-3-yl)-amide], the EC50 stood at 14 nM.

On to `CC(C)(C)c1cc(NC(=O)[C@@H]2CCCCN2C(=O)CN2CCCC2)no1` [(S)-1-(2-Pyrrolidin-1-yl-acetyl)-piperidine-2-carboxylic acid (5-tert-butyl-isoxazol-3-yl)-amide], for which the EC50 is 431 nM.

Consider `CCc1sc(NC(=O)[C@@H]2CCCCN2C(=O)OC(C)(C)C)nc1-c1ccccc1` [(S)-2-(5-Ethyl-4-phenyl-thiazol-2-ylcarbamoyl)-piperidine-1-carboxylic acid tert-butyl ester], for which the EC50 came out at 180 nM.

On to `O=C(Nc1nc2c(F)cccc2s1)[C@@H]1CCCCN1C(=O)N1CCS(=O)(=O)CC1` [(S)-1-(1,1-Dioxo-1λ^6-thiomorpholine-4-carbonyl)-piperidine-2-carboxylic acid (4-fluoro-benzothiazol-2-yl)-amide], for which the EC50 was found to be 59 nM.

For the compound `COc1ccc(-c2nsc(NC(=O)[C@@H]3CCCCN3C(=O)N3CCS(=O)(=O)CC3)n2)cc1` [(S)-1-(1,1-Dioxo-1λ^6-thiomorpholine-4-carbonyl)-piperidine-2-carboxylic acid [3-(4-methoxy-phenyl)-[1,2,4]thiadiazol-5-yl]-amide], the EC50 came to 20 nM.

For the compound `CC(C)(C)c1cc(NC(=O)[C@@H]2CCCC(=O)N2c2ccc(Cl)cc2)on1` [(S)-1-(4-Chloro-phenyl)-6-oxo-piperidine-2-carboxylic acid (3-tert-butyl-isoxazol-5-yl)-amide], the EC50 came out at 181 nM.

Take `CCC(C)c1cc(NC(=O)[C@@H]2CCCCN2C(=O)N2CCS(=O)(=O)CC2)on1` (stereo partly drawn) [(S)-1-(1,1-Dioxo-1λ^6-thiomorpholine-4-carbonyl)-piperidine-2-carboxylic acid (3-sec-butyl-isoxazol-5-yl)-amide]: the EC50 stood at 105 nM.

As to `CC(C)(C)c1nnc(NC(=O)[C@@H]2CCCCN2C(=O)N2CCS(=O)(=O)CC2)s1` [(S)-1-(1,1-Dioxo-1λ^6-thiomorpholine-4-carbonyl)-piperidine-2-carboxylic acid (5-tert-butyl-1,3,4-thiadiazol-2-yl)-amide], the EC50 worked out at 53 nM.

In the case of `CC(C)(C)c1nnc(NC(=O)[C@@H]2CCCCN2CC2CCOCC2)s1` [(S)-1-(Tetrahydro-pyran-4-ylmethyl)-piperidine-2-carboxylic acid (5-tert-butyl-1,3,4-thiadiazol-2-yl)-amide], the EC50 stood at 1.6 nM.

Consider `O=C(Nc1nc2cc(F)c(F)cc2s1)[C@@H]1CCCCN1C(=O)N1CCS(=O)(=O)CC1` [(S)-1-(1,1-Dioxo-1λ^6-thiomorpholine-4-carbonyl)-piperidine-2-carboxylic acid (5,6-difluoro-benzothiazol-2-yl)-amide], for which the EC50 worked out at 448 nM.
